We go through 15 molecules from patent publication US9376425B2, “Heterocyclic compounds as MDM2 inhibitors for the treatment of cancer” (AMGEN INC., priority 2011, dated 2016).

pIC50: −log10 of the molar value.

In this test the target is T1, human MDM2 (GST-hMDM2 1-188), interaction with biotinylated-p53 (1-83) (Homo sapiens, UniProt Q00987).
T1 construct: Amino acid residues 1-188 of human MDM2 were expressed; made in house; host or cells: Escherichia coli
T1 sequence (Q00987 1-188): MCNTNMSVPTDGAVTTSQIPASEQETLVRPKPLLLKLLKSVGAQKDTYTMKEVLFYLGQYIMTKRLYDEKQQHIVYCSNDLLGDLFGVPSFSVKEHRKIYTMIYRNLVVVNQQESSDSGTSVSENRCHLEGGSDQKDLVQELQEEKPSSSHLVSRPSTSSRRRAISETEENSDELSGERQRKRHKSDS
The test can be described thus: improved HTRF assay (HTRF2 assay), inhibition of HDM2-p53 interaction. It is filed as binding. As to conditions: 0.2 nM GST-hMDM2, 0.5 nM biotinylated-p53, 100 mM KF. An outline of the steps:
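Time-resolved fluorescence (HTRF) read after >4 h equilibration with SA-XLent/anti-GST cryptate/KF detection reagents. Reaction: compound plus GST-hMDM2 for 20 min at room temperature, then E. coli-expressed biotinylated p53 residues 1-83 for 60 min, 2% DMSO final. Inhibition expressed versus nutlin-3.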
`CC(C)(C)S(=O)(=O)C[C@H](C1CC1)N1C(=O)[C@@H](CC#N)O[C@H](c2cccc(Cl)c2)[C@H]1c1ccc(Cl)cc1` (single isomer, unassigned) [Example 387, 2-((2R,5R,6R)-4-((S)-2-(tert-Butylsulfonyl)-1-cyclopropylethyl)-6-(3-chlorophenyl)-5-(4-chlorophenyl)-3-oxomorpholin-2-yl)acetonitrile or 2-((2S,5R,6R)-4-((S)-2-(tert-butylsulfonyl)-1-cyclopropylethyl)-6-(3-chlorophenyl)-5-(4-chlorophenyl)-3-oxomorpholin-2-yl)acetonitrile] gave a pIC50 of 7.21.

On to `CC(C)(C)SC[C@H](C1CC1)N1C(=O)[C@@H](CC(=O)O)O[C@H](c2ccc(Br)c(Cl)c2)[C@H]1c1ccc(Cl)cc1` (single isomer, unassigned) [Example 322, 2-((2R,5R,6R)-6-(4-Bromo-3-chlorophenyl)-4-((S)-2-(tert-butylthio)-1-cyclopropylethyl)-5-(4-chlorophenyl)-3-oxomorpholin-2-yl)acetic acid or 2-((2S,5R,6R)-6-(4-bromo-3-chlorophenyl)-4-((S)-2-(tert-butylthio)-1-cyclopropylethyl)-5-(4-chlorophenyl)-3-oxomorpholin-2-yl)acetic acid], for which the pIC50 was 7.29.

`CC[C@@H](CS(=O)(=O)N1CCC[C@@H]1C)N1C(=O)[C@@H](CC(=O)O)O[C@H](c2cccc(Cl)c2)[C@H]1c1ccc(Cl)cc1` (single isomer, unassigned) [Example 209, 2-((2R,5R,6R)-6-(3-chlorophenyl)-5-(4-chlorophenyl)-4-((S)-1-(((S)-2-methylpyrrolidin-1-yl)sulfonyl)butan-2-yl)-3-oxomorpholin-2-yl)acetic acid or 2-((2S,5R,6R)-6-(3-chlorophenyl)-5-(4-chlorophenyl)-4-((S)-1-(((S)-2-methylpyrrolidin-1-yl)sulfonyl)butan-2-yl)-3-oxomorpholin-2-yl)acetic acid] had a pIC50 of 8.15.

On to `O=C(O)C[C@@]1(CC(F)(F)F)O[C@H](c2cccc(Cl)c2)[C@@H](c2ccc(Cl)cc2)N([C@H](CN(c2ccccc2F)S(=O)(=O)C2CC2)C2CC2)C1=O` (single isomer, unassigned) [Example 333, 2-((2S,5R,6R)-6-(3-Chlorophenyl)-5-(4-chlorophenyl)-4-((S)-1-cyclopropyl-2-(N-(2-fluorophenyl)cyclopropanesulfonamido)ethyl)-3-oxo-2-(2,2,2-trifluoroethyl)morpholin-2-yl)acetic acid or 2-((2R,5R,6R)-6-(3-chlorophenyl)-5-(4-chlorophenyl)-4-((S)-1-cyclopropyl-2-(N-(2-fluorophenyl)cyclopropanesulfonamido)ethyl)-3-oxo-2-(2,2,2-trifluoroethyl)morpholin-2-yl)acetic acid], for which the pIC50 is 6.70.

For `CC[C@@H](CS(=O)(=O)C(C)(C)C)N1C(=O)[C@@H](CC(=O)CO)O[C@H](c2cccc(Cl)c2)[C@H]1c1ccc(Cl)cc1` (single isomer, unassigned) [Example 245, (2R,5R,6R)-4-((S)-1-(tert-butylsulfonyl)butan-2-yl)-6-(3-chlorophenyl)-5-(4-chlorophenyl)-2-(3-hydroxy-2-oxopropyl)morpholin-3-one or (2S,5R,6R)-4-((S)-1-(tert-butylsulfonyl)butan-2-yl)-6-(3-chlorophenyl)-5-(4-chlorophenyl)-2-(3-hydroxy-2-oxopropyl)morpholin-3-one], the pIC50 was 8.05.

`CC(C)[C@@H](CN(c1ccccc1F)S(=O)(=O)C(C)C)N1C(=O)[C@@H](CC(=O)O)O[C@H](c2cccc(Cl)c2)[C@H]1c1ccc(Cl)cc1` (single isomer, unassigned) [Example 199, 2-((2R,5R,6R)-6-(3-chlorophenyl)-5-(4-chlorophenyl)-4-((S)-1-(N-(2-fluorophenyl)propan-2-ylsulfonamido)-3-methylbutan-2-yl)-3-oxomorpholin-2-yl)acetic acid or 2-((2S,5R,6R)-6-(3-chlorophenyl)-5-(4-chlorophenyl)-4-((S)-1-(N-(2-fluorophenyl)propan-2-ylsulfonamido)-3-methylbutan-2-yl)-3-oxomorpholin-2-yl)acetic acid]: the pIC50 was 9.00.

The molecule `CC(C)(C)S(=O)(=O)C[C@H](C1CC1)N1C(=O)[C@@](C)(CC(=O)O)O[C@H](c2cccc(Cl)c2)[C@H]1c1ccc(Cl)cc1` (single isomer, unassigned) [Example 335, 2-((2R,5R,6R)-4-((S)-2-(tert-Butylsulfonyl)-1-cyclopropylethyl)-6-(3-chlorophenyl)-5-(4-chlorophenyl)-2-methyl-3-oxomorpholin-2-yl)acetic acid or 2-((2S,5R,6R)-4-((S)-2-(tert-butylsulfonyl)-1-cyclopropylethyl)-6-(3-chlorophenyl)-5-(4-chlorophenyl)-2-methyl-3-oxomorpholin-2-yl)acetic acid] gave a pIC50 of 8.52.

Molecule `CC[C@@H](CS(=O)(=O)C(C)(C)C)N1C(=O)[C@@H](CC(=O)O)O[C@H](c2cccc(Cl)c2)[C@@]1(C)c1ccc(Cl)cc1` (single isomer, unassigned) [Example 163, 2-((2R,5R,6R)-4-((S)-1-(tert-butylsulfonyl)butan-2-yl)-6-(3-chlorophenyl)-5-(4-chlorophenyl)-5-methyl-3-oxomorpholin-2-yl)acetic acid or 2-((2S,5R,6R)-4-((S)-1-(tert-butylsulfonyl)butan-2-yl)-6-(3-chlorophenyl)-5-(4-chlorophenyl)-5-methyl-3-oxomorpholin-2-yl)acetic acid] showed a pIC50 of 5.18.

In turn, `CC[C@@H](CS(=O)(=O)C(C)(C)C)N1C(=O)[C@@H](CC(=O)O)O[C@H](c2cccc(Cl)c2)[C@@]1(C)c1ccc(Cl)cc1` (single isomer, unassigned) [Example 162, 2-((2R,5R,6R)-4-((S)-1-(tert-butylsulfonyl)butan-2-yl)-6-(3-chlorophenyl)-5-(4-chlorophenyl)-5-methyl-3-oxomorpholin-2-yl)acetic acid or 2-((2S,5R,6R)-4-((S)-1-(tert-butylsulfonyl)butan-2-yl)-6-(3-chlorophenyl)-5-(4-chlorophenyl)-5-methyl-3-oxomorpholin-2-yl)acetic acid] gave a pIC50 of 5.20.

`CC(C)(C)S(=O)(=O)C[C@@H](C1CCC1)N1C(=O)[C@@H](CC(=O)O)O[C@H](c2cccc(Cl)c2)[C@H]1c1ccc(Cl)cc1` (single isomer, unassigned) [Example 272, 2-((2R,5R,6R)-4-((R)-2-(tert-Butylsulfonyl)-1-cyclobutylethyl)-6-(3-chlorophenyl)-5-(4-chlorophenyl)-3-oxomorpholin-2-yl)acetic acid or 2-((2S,5R,6R)-4-((R)-2-(tert-butylsulfonyl)-1-cyclobutylethyl)-6-(3-chlorophenyl)-5-(4-chlorophenyl)-3-oxomorpholin-2-yl)acetic acid] gave a pIC50 of 6.81.

For the molecule `CC(C)(C)S(=O)(=O)C[C@H](CC(F)(F)F)N1C(=O)[C@@](C)(CC(=O)O)O[C@H](c2cccc(Cl)c2)[C@H]1c1ccc(Cl)cc1` (single isomer, unassigned) [Example 341, 2-((2R,5R,6R)-4-((S)-1-(tert-Butylsulfonyl)-4,4,4-trifluorobutan-2-yl)-6-(3-chlorophenyl)-5-(4-chlorophenyl)-2-methyl-3-oxomorpholin-2-yl)acetic acid or 2-((2S,5R,6R)-4-((S)-1-(tert-butylsulfonyl)-4,4,4-trifluorobutan-2-yl)-6-(3-chlorophenyl)-5-(4-chlorophenyl)-2-methyl-3-oxomorpholin-2-yl)acetic acid], the pIC50 is > 9.00.

As to `CC(C)[C@@H](CS(=O)(=O)C(C)(C)C)N1C(=O)[C@@H](CC(=O)O)O[C@H](c2cccc(Cl)c2)[C@H]1c1ccc(Cl)c(F)c1` (single isomer, unassigned) [Example 310], the negative logarithm of the IC50 (pIC50) is 9.00.

Turning to `O=C(O)C[C@H]1O[C@H](c2cccc(Cl)c2)[C@@H](c2ccc(Cl)cc2)N([C@H](CS(=O)(=O)N2CCc3cc(F)ccc32)C2CC2)C1=O` (single isomer, unassigned) [Example 299, 2-((2R,5R,6R)-6-(3-Chlorophenyl)-5-(4-chlorophenyl)-4-((S)-1-cyclopropyl-2-((5-fluoroindolin-1-yl)sulfonyl)ethyl)-3-oxomorpholin-2-yl)acetic acid or 2-((2S,5R,6R)-6-(3-chlorophenyl)-5-(4-chlorophenyl)-4-((S)-1-cyclopropyl-2-((5-fluoroindolin-1-yl)sulfonyl)ethyl)-3-oxomorpholin-2-yl)acetic acid], the pIC50 is 7.96.

With `C[C@@H](CS(=O)(=O)C(C)(C)C)N1C(=O)[C@H](CC(=O)NS(C)(=O)=O)O[C@H](c2cccc(Cl)c2)[C@H]1c1ccc(Cl)cc1` (single isomer, unassigned) [Example 237], the negative-log IC50 (pIC50) is 8.52.

`O=C1[C@@H](Cc2ncn[nH]2)O[C@H](c2cccc(Cl)c2)[C@@H](c2ccc(Cl)cc2)N1[C@H](CN(c1ccccc1F)S(=O)(=O)C1CC1)C1CC1` (single isomer, unassigned) [Example 397, N-((S)-2-((2R,5R,6R)-2-((1H-1,2,4-Triazol-5-yl)methyl)-6-(3-chlorophenyl)-5-(4-chlorophenyl)-3-oxomorpholino)-2-cyclopropylethyl)-N-(2-fluorophenyl)cyclopropanesulfonamide or N-((S)-2-((2S,5R,6R)-2-((1H-1,2,4-triazol-5-yl)methyl)-6-(3-chlorophenyl)-5-(4-chlorophenyl)-3-oxomorpholino)-2-cyclopropylethyl)-N-(2-fluorophenyl)cyclopropanesulfonamide] gave a pIC50 of 9.00.

Usually pIC50 stands for the IC50 on a negative log10 scale, so that one unit is a factor of ten. A lower pIC50 goes with a high IC50.
